The values below come from PubChem BioAssay AID179 (DTP/NCI, 2004).

The subject of this assay is CEM cells HIV-1 protection, formazan growth assay. Put plainly: NCI AIDS Antiviral Assay. The settings on record: for IC50: measured here: growth of uninfected CEM cells. In short, it runs like this: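 Protection of CEM cells against HIV-1 was scored from cell growth (soluble formazan) across five concentrations, with parallel uninfected cells. Lack of protection may reflect toxicity.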

A word on the EC50: it is the concentration at which the effect is half-maximal. The term IC50 denotes the point on the concentration scale where inhibition reaches its midpoint. A higher IC50 goes with weaker potency.

SMILES strings stand for the structures. Values joined by “and” are separate entries in the source; they are usually repeats but may differ in a detail not shown here. Identical values can stand only once. Active and inactive are the calls of the source.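 How the source made its calls: active means compounds giving half or more protection of infected cells from virus-caused growth loss, again on retest; inactive means the rest.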 Where a SMILES comes first, the peptide text is derived from it. [ ]: non-standard residue; d: D form. The star is where a group is joined. ξ: configuration not given here. ξW = NC(Cc1c[nH]c2ccccc12)C(=O)O; X18 = O=C(O)[C@H]1CCC[C@H]1N*; ξF = NC(Cc1ccccc1)C(=O)O; Boc = CC(C)(C)OC(=O)*; ξK = NCCCCC(N)C(=O)O; ξT = CC(O)C(N)C(=O)O; tBu = CC(C)(C)*

In the case of `S=c1[nH]c(=S)c2nc(Nc3ccccc3)sc2[nH]1`, the EC50 was > 617 µM and the IC50 is > 617 µM.
On to `COC(=O)c1ccc(/C=C/S(=O)(=O)c2ccccc2)cc1`, for which the EC50 was > 4.79 µM and the IC50 was > 4.79 µM.
For the compound `CCC(=O)OC1CC2=CC(=O)CCC2(C)C2CCC3(C)C(OC(=O)CC)CCC3C12` (stereo not given), the EC50 was > 200 µM and the IC50 was > 200 µM.
With `Cc1cc2c(C)c(-c3ccccc3)c(=O)oc2c(C#N)c1C`, the EC50 is > 200 µM and the IC50 is 170 µM.
On the same counts, the results for `COc1ccc2c(c1)OC[C@@H]1c3cc(NS(=O)(=O)c4ccccc4)cc(OC)c3O[C@H]21` are > 200 µM and 18.2 µM.
On the same counts, the results for `COc1ccc(C2CC(c3ccc4ccccc4c3O)=NN2C(C)=O)cc1OC` (stereo not given) are > 50.1 µM and > 50.1 µM.
With `CC1NOC(=O)C1N=Nc1ccc(Cl)cc1Cl` (stereo not given), the EC50 is > 36.3 µM and the IC50 was > 36.3 µM.
With `N#Cc1cscc1C#N`, the EC50 was > 200 µM and the IC50 was > 200 µM.
As to `CCN(CC)CCN(C(=Nc1ccccc1)N1CCOCC1)c1ccccc1`, the EC50 was > 200 µM and the IC50 was determined as 41.7 µM.
Take `Clc1cc(Cl)c(NN=C(c2ccccc2)c2ccccc2)c(Cl)c1`: the EC50 is > 200 µM and the half-maximal inhibitory concentration (IC50) was > 200 µM.
As to `CCc1nc2c(O)ccc(O)c2nc1C`, the EC50 is > 178 µM and the IC50 stood at 10.5 µM.
With `CCOC(=O)c1c(SCCN2CCCCC2)n(-c2ccccc2)c(=S)n(-c2ccccc2)c1=O`, the EC50 was > 20 µM and the IC50 is > 20 µM.
For the compound `COc1cc2c(oc(=O)c3c4oc([Si](C)(C)C)cc4cc(OC)c23)c2cccc(OCc3ccccc3)c12`, the EC50 was > 0.501 µM and the IC50 was > 0.501 µM.
Turning to `C#CCOCn1cc(C)c(=O)[nH]c1=O`, the EC50 is > 200 µM and the IC50 was > 200 µM.
Turning to `COc1ccc(-n2sc3ncc(C)cc3c2=O)cc1`, the EC50 is 0.49 µM and the IC50 was 10.5 µM.
Take `N#Cc1c(N2CCCC2)nsc1Nc1ccccc1`: the EC50 was > 200 µM and the IC50 is > 200 µM.
Consider `Cc1cc(-n2nnnc2-c2ccc([N+](=O)[O-])cc2)no1`, for which the EC50 is > 5.01 µM and the half-inhibitory concentration (IC50) turned out to be 4.37 µM.
On to `COc1ccc(C2C=C(c3ccc(C)cc3)N(c3ccc(OC)cc3[N+](=O)[O-])C3C(=O)OC(=O)C23)c(OC)c1` (stereo not given), for which the EC50 is > 200 µM and the IC50 stood at 31.6 µM.
For the compound `O=c1[nH]c(O)c(/C=N/C(=S)NCc2ccccc2)c(=O)[nH]1`, the EC50 is > 200 µM and the IC50 was found to be 195 µM.
For the compound `OCc1c(-c2cccc3ccccc23)sc(-c2cccc3ccccc23)c1CO`, the outcome was inactive.
On to `CNNCc1ccc(C(=O)NC(C)C)cc1`, for which the EC50 was > 977 µM and the IC50 was found to be 229 µM.
Regarding `CCOC(=O)c1nnsc1NC(=O)NCCCCCCn1c(=O)n(CCCCCCNC(=O)Nc2snnc2C(=O)OCC)c(=O)n(CCCCCCNC(=O)Nc2snnc2C(=O)OCC)c1=O`, the EC50 was > 200 µM and the IC50 is > 200 µM.
As for `CN1C(=O)C(O)CC1c1cccc(C(F)(F)F)c1` (stereo not given), the result was inactive.
`COc1ccc(C2=Nn3c(nc4sc(-c5ccccc5)cc4c3=O)SC2)cc1`: the EC50 is > 200 µM and the IC50 was > 200 µM.
Regarding `C/C(CC(=O)Nc1ccc(Cl)cc1)=N\NC(=O)C[n+]1ccccc1`, the EC50 is > 49 µM and the IC50 is > 49 µM.
Take `C(/C=C/N1CCCC1)=C\c1nc(N2CCCC2)c2ccccc2n1`: the EC50 was > 42.7 µM and the IC50 amounted to 11.5 µM.
As for `Cc1ccc(S(=O)(=O)OC(c2ccc(Cl)cc2Cl)C2OC(=O)c3ccccc32)cc1` (stereo not given), the EC50 is > 40.7 µM and the IC50 was > 40.7 µM.
Consider `O=C1Sc2ccccc2C(=O)N2CS(=O)CC12` (stereo not given), for which the EC50 was > 100 µM and the half-maximal inhibitory concentration (IC50) was > 100 µM.
Consider `O=[N+]([O-])CCc1cccc([N+](=O)[O-])c1`, for which the EC50 is > 1260 µM and the IC50 is > 1260 µM.
For the compound `C(=C\c1cnc2ccccc2n1)/c1ccc2c(c1)OCO2`, the EC50 was > 200 µM and the IC50 was > 200 µM.
For the compound `Oc1ccc(-c2nc3ccccc3s2)c(O)c1`, the EC50 was > 148 µM and the IC50 was found to be 27.5 µM.
As for `c1ccc(N=C2SC(=NNc3ccccc3)SC2=Nc2ccccc2)cc1`, the EC50 was > 200 µM and the 50% inhibitory concentration (IC50) was > 200 µM.
Take `COC(=O)C1=C(C(=O)OC)SC(=C(Br)C(=C2SC(C(=O)OC)=C(C(=O)OC)S2)C(=C2SC(C(=O)OC)=C(C(=O)OC)S2)C(Br)=C2SC(C(=O)OC)=C(C(=O)OC)S2)S1`: the EC50 was > 2.51 µM and the IC50 was > 2.51 µM.
`O=S(=O)(O)c1cc(N=Nc2cc(S(=O)(=O)O)c3cccnc3c2O)ccc1/C=C/c1ccc(N=Nc2cc(S(=O)(=O)O)c3cccnc3c2O)cc1S(=O)(=O)O` (tested in a mixture with another compound): the EC50 was 2.95 µM and the IC50 came to 50.1 µM.
For the compound `CC(OC(C)(C)C)C(NC(=O)C(CCCCNC(=O)OC(C)(C)C)NC(=O)C(Cc1c[nH]c2ccccc12)NC(=O)C(N)Cc1ccccc1)C(=O)NC(Cc1ccccc1)C(=O)N[C@@H]1CCC[C@@H]1C(=O)O` (stereo not given in full) (H-[ξF][ξW][ξK](Boc)[ξT](tBu)[ξF]-X18), the outcome was inactive.
Regarding `C=CC[C@@]1(C)CCCCCCCCC[C@@](C)(CC=C)C1=O`, the EC50 was > 200 µM and the IC50 worked out at 115 µM.
In the case of `COc1cc(N)ccc1Nc1c2ccccc2nc2ccccc12`, the EC50 was > 200 µM and the IC50 is 1.02 µM.
On the same counts, the results for `CC(=O)NC1=NC(=O)/C(=C/c2ccccc2Cl)N1C` are > 200 µM and > 200 µM.
In the case of `CC(=O)OC[C@]1(C)C2C=C[C@@H]3C4(CC[C@]5(C)C(C(C)N(C)C)[C@H](O)CC35C)CC24CC[C@@H]1N(C)C` (stereo not given in full), the outcome was inactive.
As to `CCOP(=O)(OCC)/C(C#N)=C/c1coc2cc(C)cc(C)c2c1=O`, the EC50 was > 200 µM and the half-inhibitory concentration (IC50) is > 200 µM.
For `[N-]=[N+]=C1C(=O)C2CC3CC1CC2C3` (stereo not given), the EC50 was > 204 µM and the IC50 is > 204 µM.
Regarding `N#CCCC(CC#N)S(=O)(=O)O` (stereo not given), the EC50 is > 200 µM and the IC50 is > 200 µM.
For `COc1nc(C(O)C2OC(C)(C)OCC2O)[nH]c1C#N` (stereo not given), the result was inactive.
As for `O=C(NCCCNCCCCNCCCNC(=O)C(F)(F)F)C(F)(F)F`, the EC50 was > 200 µM and the IC50 was 14.8 µM.
Take `O=S(=O)(SCCO)c1ccccc1`: the EC50 is > 813 µM and the IC50 was found to be 57.5 µM.
On the same counts, the results for `O/N=C/c1cc2c(cc1Br)OCO2` are > 155 µM and > 155 µM.
On the same counts, the results for `[N-]=[N+]=NC1=C(c2ccccc2)C(=O)c2cccc3cccc1c23` are > 200 µM and 7.76 µM.
Regarding `COc1ccc(/C=c2/sc3n(c2=O)NC(c2ccc(Cl)cc2)NN=3)cc1` (stereo not given), the outcome was inactive.
`COc1cccc(NC(=O)C(=O)C(C(=O)c2ccccc2F)C2OC(=O)c3ccccc32)c1` (stereo not given): the EC50 is > 288 µM and the IC50 was determined as 10.7 µM.
For the compound `COc1ccccc1NC(=O)C1=C(C)NC(C)=C(C(=O)Nc2ccccc2OC)C1c1cccc2c1OCO2`, the result was inactive.
Turning to `COc1cc2cc3cc(-c4ccc(Cl)cc4)c(N4CCN(C)CC4)nc3nc2cc1OC`, the EC50 is > 39.8 µM and the IC50 came out at 6.61 µM.
On to `COC(=O)c1cc2cc(O)c(O)cc2cn1`, for which the EC50 was > 200 µM; the IC50 was > 8.32 µM and 12 µM.
With `O=S1c2ccccc2S(=O)c2ccccc21` (stereo not given), the EC50 is > 200 µM and the 50% inhibitory concentration (IC50) is > 200 µM.
Take `COc1ccc(C2SC(N)=Nc3c2c(C)nn3C(=O)c2ccc(Cl)cc2)cc1OC` (stereo not given): the EC50 is > 200 µM and the IC50 is > 200 µM.
For `O=C(Cn1c(=O)ccc2ccccc21)Cn1c(=O)ccc2ccccc21`, the EC50 was > 200 µM and the IC50 is > 200 µM.
For the compound `COC(CNC(=O)C(C)NC(=O)C(C)NC(=O)c1ccccc1)OC` (stereo not given), the outcome was inactive.
Regarding `Clc1cccc(C2SCc3nc4ccccc4n32)c1` (stereo not given), the outcome was inactive.
As to `Nc1nnc(N)n1NC(=O)C(=O)Nc1ccc([N+](=O)[O-])cc1`, the EC50 is > 151 µM and the IC50 was > 151 µM.
`N#CC(C(=O)/C(=N\NC(N)=O)C(C#N)c1ccccc1)c1ccccc1` (stereo not given): the EC50 is > 724 µM and the concentration for half-maximal inhibition (IC50) is > 724 µM.
With `CCOC(=O)NC(Nc1ncccn1)(C(=O)OCC)C(F)(F)F` (stereo not given), the EC50 is > 200 µM and the IC50 is > 200 µM.
In the case of `Cc1c(CO)[n+](=O)c2ccccc2n1[O-]`, the EC50 is > 200 µM and the IC50 is > 200 µM.
As to `COC(=O)C(NC(=O)C(C)NC(=O)OC(C)(C)C)C(C)O` (stereo not given), the result was inactive.
For `CC(C)/C=C/C1=C(O)c2ccccc2C(=O)C1=O`, the outcome was inactive.
Consider `COC1=C(C)C(=O)C2=C(C1=O)C(CO)N1C(C#N)C3CC4C(C1C2N1CCOC41)N3C` (stereo not given), for which the EC50 is > 1.17 µM and the half-inhibitory concentration (IC50) was determined as 0.00575 µM.
As to `CC1(C)CC(=O)C2=C(C1)NC(SCC(=O)O)=C(C#N)C2c1ccc(Br)cc1` (stereo not given), the EC50 was > 200 µM and the IC50 is 178 µM.
Regarding `CC1=NN2C(c3ccc(C)cc3)=CSC2=NC(C)(C)C1`, the EC50 was > 174 µM and the half-maximal inhibitory concentration (IC50) stood at 141 µM.
`NCCN.NCCN.O=C([O-])[O-].O=C([O-])[O-].[Co+3]`: the result was inactive.
For the compound `COc1ccc2c(c1)C1(C=N2)CCN(C(C)=O)CC1`, the EC50 was > 138 µM and the IC50 was > 138 µM.
For the compound `COc1ccc2c3c(c(C(=O)c4ccccc4)oc13)CCC2`, the outcome was inactive.
`CSc1nc(C)c(CCCl)c(Cl)n1`: the outcome was inactive.
For the compound `COC(=O)Cc1cc(O)c2c(c1O)C(=O)c1ccccc1C2=O`, the outcome was inactive.
Consider `O=C1C(c2ccccc2)=C(c2ccccc2)[C@H](c2ccccc2)[C@]1(Cc1nnn(-c2ccc([N+](=O)[O-])cc2)c1N1CCOCC1)c1ccccc1`, for which the result was inactive.
With `Cc1ccc(S(=O)(=O)NC2C(=O)c3ccccc3C(=O)C2n2ccnc2)cc1` (stereo not given), the EC50 is > 200 µM and the IC50 amounted to 87.1 µM.
